Six compounds from patent publication EP0326331B1, “Substituted quinolines and cinnolines” (Dow AgroSciences LLC, priority 1988, dated 1989) can be followed below.

What all share (type): in vivo
The test system of experiment [1] is Erysiphe graminis tritici (powdery mildew). The experiment is described as follows: Test 1 greenhouse foliar spray screen, powdery mildew on wheat. The settings on record: Blumeria graminis, foliar, Test 1, foliar spray on wheat; disease control rating at 400 ppm / 100 ppm; read-out: POWD MDEW.
Experiment [2] concerns Pyricularia oryzae (rice blast). The experiment is described as follows: whole plant or invertebrate. As to conditions: Pyricularia oryzae, foliar, read-out: RICE BLAST, Test 1, foliar spray on rice; disease control rating at 400 ppm / 100 ppm.
In experiment [3] the test system is Puccinia recondita tritici (leaf rust). The experiment is described as follows: Test 1 greenhouse foliar spray screen, leaf rust on wheat. As to conditions: Puccinia recondita, foliar, Test 1, foliar spray on wheat; disease control rating at 400 ppm / 100 ppm.
In experiment [4] the test system is Botrytis cinerea (gray mold). Briefly: Test 1 greenhouse foliar spray screen, gray mold on grape berries. The settings on record: Botrytis cinerea, foliar; Test 1, spray on grape berries; disease control rating at 400 ppm / 100 ppm.
Experiment [5] deals with Pseudoperonospora cubensis (downy mildew). The experiment is described as follows: Test 1 greenhouse foliar spray screen, downy mildew on squash. As to conditions: Pseudoperonospora cubensis, foliar, Test 1, foliar spray on squash; disease control rating at 400 ppm / 100 ppm; read-out: DOWN MDEW.
Experiment [6] has as its system southern armyworm (Spodopetra eridania Cramer). Briefly: Mite/insect screen, SAW. As to conditions: Spodoptera eridania, foliar, percent mortality, foliar spray on squash, read-out: SAW RESULTS %; for mortality at 400 ppm: rate 400 ppm. Summed up: (§1)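 Compounds dissolved in 50:50 acetone/alcohol containing sulfonate/nonionic emulsifier blends, then diluted with water to the indicated concentrations. Leaves sprayed on both surfaces to runoff at 10 psi and dried one hour. Percent mortality scored after standard exposure periods.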

The subject of experiment [7] is Twospotted spider mites (Tetranychus urticae Koch). The experiment is described as follows: Mite/insect screen, SM. As to conditions: for mortality at 400 ppm: rate 400 ppm; for activity as miticides: summary statement in the description. Summed up: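 Activity is expressed as percent mortality at the indicated spray concentrations. Plants are sprayed to runoff on upper and lower leaf surfaces with aqueous dilutions of an acetone/alcohol emulsifiable formulation, then dried for one hour.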

In experiment [8] the test system is melon aphids (Aphis gossypii Glover). The experiment is described as follows: Mite/insect screen, MA. The settings on record: Aphis gossypii, foliar, percent mortality, foliar spray on squash, read-out: MA RESULTS %; for mortality at 400 ppm: rate 400 ppm. Summed up: as §1
A further experiment has as its system corn rootworm. Briefly: Mite/insect screen, CRW. The settings on record: percent mortality, read-out: CRW RESULTS %; for mortality at 24 ppm: CRW rate 24.00 ppm. Summed up: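 Compounds were dissolved in 50:50 acetone/alcohol containing sulfonate/nonionic emulsifier blends (23 g/L plus 13 g/L), then diluted with water to the test concentrations. Percent mortality was scored after standard exposure periods.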

[9] abbreviates: Tetranychus urticae, foliar, percent mortality, foliar spray on squash, read-out: SM RESULTS %.

Consider `COc1ccc(CCOc2ccnc3c(F)cccc23)cc1` [Example 196, 8-fluoro-4-[2-(4-methoxyphenyl)ethoxy]quinoline], for which the pest or weed control at 400 ppm fell in the range of 90 to 100% in experiment [1]; 90 to 100% in experiment [2]; 90 to 100% in experiment [3]; 0 to 19% in [4]; 90 to 100% in [5]. Besides, the mortality at 400 ppm was 0% in experiment [6], 100% in experiment [7] (setting [9]) and 100% in experiment [8]. Further, the activity as miticides result in [7] is on record as “particularly excellent activity”. Also, the mortality at 24 ppm in the experiment with corn rootworm was 0%.

Consider `Fc1cccc2c(OCCc3cccc(Oc4ccccc4)c3)ccnc12` [Example 197, 8-fluoro-4-[2-(3-phenoxyphenyl)ethoxy]quinoline], for which the pest or weed control at 400 ppm in experiment [1] fell in the range of 90 to 100%; in experiment [2], 90 to 100%; in experiment [3], 90 to 100%; in [4], 0 to 19%; in [5], 20 to 89%. For the same compound, the mortality at 400 ppm in experiment [6] stood at 80%; in experiment [7] (setting [9]) it was 90%; in experiment [8], 80%. Also, the activity as miticides entry in experiment [7] was “particularly excellent activity”. In the experiment with corn rootworm, the mortality at 24 ppm worked out at 0%.

Take `CC(C)(C)c1ccc(CCOc2ccnc3c(Br)cccc23)cc1` [Example 198, 8-bromo-4-[2-(4-(t-butyl)phenyl)ethoxy]quinoline]: the pest or weed control at 400 ppm in [1], in experiment [2], in experiment [3], in experiment [4] and in experiment [5] was 0 to 19% throughout. Moreover, the mortality at 400 ppm in experiment [6] was found to be 0%; in experiment [7] (setting [9]) it was 90%; in [8] it was 80%. For the same compound, the mortality at 24 ppm in the experiment with corn rootworm worked out at 0%.

With `COc1ccc(CCOc2ccnc3c(F)cccc23)cc1OC` [Example 199, 4-[2-(3,4-dimethoxyphenyl)ethoxy]-8-fluoroquinoline], the pest or weed control at 400 ppm in experiment [1] is 90 to 100%; in [2], 90 to 100%; in experiment [3] it was 90 to 100%; in experiment [4], 0 to 19%; in experiment [5], 90 to 100%. Also, the mortality at 400 ppm in experiment [6], in [7] (setting [9]) and in experiment [8] was 0% in each case. Moreover, in the experiment with corn rootworm, the mortality at 24 ppm amounted to 100%.

Take `Cc1ccc(CCOc2ccnc3cc(Cl)ccc23)cc1` [Example 204, 7-chloro-4-[2-(4-methylphenyl)ethoxy]quinoline]: the pest or weed control at 400 ppm in [1] lay within 20 to 89%; in experiment [2], 0 to 19%; in [3] it was 20 to 89%; in experiment [4], 0 to 19%; in experiment [5] it was 20 to 89%. In addition, the mortality at 200 ppm in experiment [6] (rate 200 ppm) came to 0%; in experiment [7] (Tetranychus urticae, foliar, percent mortality, rate 200 ppm, foliar spray on squash, read-out: SM RESULTS %) it was 0%; in experiment [8] (rate 200 ppm), 0%. Moreover, the mortality at 400 ppm in [6] is 100%; in experiment [7] (setting [9]) it was 0%; in experiment [8] it was 50%. Also, the mortality at 12 ppm with corn rootworm (CRW rate 12.00 ppm) is 0%. Further, in the experiment on corn rootworm, the mortality at 24 ppm was 0%.

With `Cc1ccccc1CCOc1ccnc2c(F)cccc12` [Example 205, 8-fluoro-4-[2-(2-methylphenyl)ethoxy]quinoline], the pest or weed control at 400 ppm in [1] was 90 to 100%; in experiment [2], 90 to 100%; in experiment [3] it was 90 to 100%; in experiment [4] it was 0 to 19%; in experiment [5] it was 90 to 100%. Besides, the mortality at 400 ppm in experiment [6], in experiment [7] (setting [9]) and in experiment [8] was 0% in each case. For the same compound, the mortality at 24 ppm in the experiment on corn rootworm is 0%.
